Results on 15 molecules are retold here after ChEMBL document CHEMBL5356955, “Thiamine analogues featuring amino-oxetanes as potent and selective inhibitors of pyruvate dehydrogenase” (Bioorg Med Chem Lett, 2024).

The target in data set [1] is T1, Pyruvate dehydrogenase E1 component subunit alpha, somatic form, mitochondrial (Sus scrofa, UniProt P29804).
T1 sequence (P29804 whole entry): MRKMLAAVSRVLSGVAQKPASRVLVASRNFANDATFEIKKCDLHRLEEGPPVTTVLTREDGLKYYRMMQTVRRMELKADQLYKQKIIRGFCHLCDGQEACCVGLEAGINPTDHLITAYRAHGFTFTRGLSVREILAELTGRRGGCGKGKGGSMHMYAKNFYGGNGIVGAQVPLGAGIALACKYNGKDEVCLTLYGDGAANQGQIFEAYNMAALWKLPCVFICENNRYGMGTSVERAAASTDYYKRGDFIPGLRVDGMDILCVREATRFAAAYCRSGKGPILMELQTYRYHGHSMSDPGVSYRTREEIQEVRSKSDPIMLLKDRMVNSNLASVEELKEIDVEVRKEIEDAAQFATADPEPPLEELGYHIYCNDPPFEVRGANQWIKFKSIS
As to the kind of experiment: Inhibition of porcine PDHc E1-subunit incubated for 30 mins followed by pyruvate addition in presence of thiamine pyrophosphate by microplate reader analysis.

Data set [2] addresses T2, Pyruvate dehydrogenase E1 component subunit alpha, somatic form, mitochondrial (Sus scrofa) (UniProt P29804).
T2 sequence (whole entry): T1 sequence (P29804 whole entry)
As to the kind of experiment: Binding affinity to porcine PDHc E1-subunit assessed as KM(TPP)/Ki ratio incubated for 30 mins followed by pyruvate addition by microplate reader analysis.

Data set [3] deals with T1, Pyruvate dehydrogenase E1 component subunit alpha, somatic form, mitochondrial. The experiment in a line: Binding affinity to porcine PDHc E1-subunit assessed as inhibition constant incubated for 30 mins followed by pyruvate addition by microplate reader analysis.
The target of data set [4] is T2, Pyruvate dehydrogenase E1 component subunit alpha, somatic form, mitochondrial (Sus scrofa). The experiment in a line: Inhibition of porcine PDHc E1-subunit at 10 uM at 1:1 compound: thiamine pyrophosphate ratio incubated for 30 mins followed by pyruvate addition by microplate reader analysis relative to control.
For data set [5] the target is unchanged. The experiment in a line: Inhibition of porcine PDHc E1-subunit at 10 uM at 1:5 compound: thiamine pyrophosphate ratio incubated for 30 mins followed by pyruvate addition by microplate reader analysis relative to control.
Data set [6] in a line: Permeability of the compound assessed as absorbed fraction by PAMPA assay. In kind it is ADME. (In general: In PAMPA a lipid-coated filter parts donor from acceptor wells.)
A short description of data set [7]: Stability of the compound assessed as compound remaining in 0.1M aqueous phosphate buffer at pH 7.4 incubated for 2 hrs by NMR analysis. In kind it is physicochemical. The note with it: read-out: Stability.
A short description of data set [8]: Thermal stability of the compound assessed as compound remaining in DMSO at 70 degreeC incubated for 2 hrs by NMR analysis. The format is physicochemical. The settings on record: read-out: Stability.
Data set [9] in a line: Stability of the compound assessed as compound remaining in 1 M aqueous NaOH at 37 degreeC incubated for 2 hrs by NMR analysis. The format is physicochemical. The settings on record: read-out: Stability.
A short description of data set [10]: Stability of the compound assessed as compound remaining in 0.1 M aqueous K2CO3 incubated for 1 hr by NMR analysis. The format is physicochemical. The note with it: read-out: Stability.
Data set [11] can be described thus: Stability of the compound assessed as compound remaining in 1 M aqueous HCl at 37 degreeC incubated for 2 hrs by NMR analysis. The format is physicochemical. The settings on record: read-out: Stability.
The nature of data set [12]: Drug metabolism in porcine liver esterase assessed as 2-(4-((4-amino-2-methylpyrimidin-5-yl)methyl)-3-methylthiophen-2-yl)ethan-1-ol formation at pH 7.4 measured after 4 hrs. In kind it is ADME, Sus scrofa. The note with it: pig, pH 7.4, 4 h.
The nature of data set [13]: Stability of the compound assessed as porcine liver esterase mediated compound degradation by measuring compound recovery at 0.05 mmol measured after 30 mins by NMR analysis. The format is ADME, Sus scrofa. The settings on record: pig, read-out: Stability.
Data set [14] in a line: Metabolic stability of the compound assessed as porcine liver esterase mediated hydrolysis at pH 7.4 measured after 4 hrs by UPLC analysis. In kind it is ADME, Sus scrofa. The settings on record: pig, isolated protein, pH 7.4, 4 h.

For `Cc1ncc(Cc2csc(CCO)c2C)c(N)n1` [3-DEAZATHIAMINE], the IC50 in data set [1] turned out to be 3600 nM. Besides, in [2], the Ratio was 2.78. For the same molecule, the Ki in [3] is 18 nM.
On to `COc1ccc(C(=O)OCC[C@H]2SCN(Cc3cnc(C)nc3N)[C@H]2C)cc1` (racemic), for which the half-maximal inhibitory concentration (IC50) in [1] worked out at 3500 nM. For the same molecule, the Ratio in data set [2] turned out to be 2.86. Moreover, the inhibitory constant (Ki) in data set [3] came out at 17.5 nM.
In the case of `COc1ccc(C(=O)OCCc2cn(Cc3cnc(C)nc3N)nn2)cc1`, the 50% inhibitory concentration (IC50) in [1] came to 6300 nM. The values for the inhibition in data set [4] and in [5] were 63% and 25%, respectively. Moreover, in data set [2], the Ratio turned out to be 1.59. Moreover, in data set [3], the inhibition constant (Ki) was 31.5 nM. In addition, the permeability in data set [6] is given as 31%.
`Cc1ncc(Cn2cc(CCOC(=O)c3cccnc3)nn2)c(N)n1`: in [1], the 50% inhibitory concentration (IC50) is 3000 nM.
Regarding `Cc1ncc(CN2CS[C@H](CCO)[C@@H]2C)c(N)n1` (racemic), in data set [1], the IC50 was found to be 21000 nM. Moreover, the Ratio in data set [2] is 0.48. Besides, the inhibitory constant (Ki) in data set [3] is 105 nM.
`COc1ccc(C(=O)OCCc2scc(Cc3cnc(C)nc3N)c2C)cc1`: the concentration for half-maximal inhibition (IC50) in data set [1] was found to be 890 nM. In addition, the inhibition in data set [4] was over 90%; in data set [5], 72%. The remaining at 2 h was over 90% in [7], over 90% in data set [8], 15% in [9] and 43% in data set [11]. For the same molecule, in data set [10], the remaining at 1 h was found to be 31%. Moreover, in [12], the Drug metabolism entry was “Metabolite_Detected”. In data set [13], the remaining at 0.5 h is under 10%. In addition, the Stability result in data set [14] was “Unstable”. Moreover, the Ratio in [2] was found to be 11.2. The inhibition constant Ki in data set [3] worked out at 4.45 nM. For the same molecule, the permeability in [6] is on record as 39%.
`Cc1ncc(Cc2coc(CCOC(=O)c3ccc(Cl)cc3)c2)c(N)n1`: the half-inhibitory concentration (IC50) in data set [1] worked out at 3300 nM.
On the same count and under the same terms, next, `Cc1ncc(Cc2coc(CCNC(=O)c3cccnc3)c2)c(N)n1`: 2500 nM.
With `COc1ccc(C(=O)NCCc2scc(Cc3cnc(C)nc3N)c2C)cc1`, the IC50 in [1] was 5100 nM. Besides, the inhibition in data set [4] was 65%; in [5], 28%. In addition, the Stability entry in data set [14] was “Stable”. The Ratio in data set [2] worked out at 1.96. The Ki in data set [3] was 25.5 nM. In addition, the permeability in data set [6] amounted to 35%.
Turning to `COc1ccc(C(=O)NCCc2cn(Cc3cnc(C)nc3N)nn2)cc1`, the IC50 in [1] was determined as 35000 nM. The inhibition is 22% in data set [4] and under 10% in [5]. Besides, the Ratio in [2] came to 0.29. For the same molecule, the Ki in data set [3] was determined as 175 nM. Also, the permeability in [6] came out at 26%.
As for `COc1ccc(C2(NCCc3cn(Cc4cnc(C)nc4N)nn3)COC2)cc1`, in [1], the IC50 is 7800 nM. Besides, the inhibition in data set [4] worked out at 58%; in data set [5], 20%. Further, in data set [2], the Ratio was determined as 1.28. Further, the Ki in [3] was 39 nM. Besides, the permeability in data set [6] is reported as 35%.
Turning to `Cc1ncc(Cc2coc(CCNC(=O)c3ccc(Cl)cc3)c2)c(N)n1`, the IC50 in data set [1] was 9200 nM.
Turning to `Cc1ncc(Cn2cc(CCNC(=O)c3ccc(Cl)cc3)nn2)c(N)n1`, the IC50 in data set [1] was 66000 nM.
Turning to `COc1ccc(C2(NCCc3scc(Cc4cnc(C)nc4N)c3C)COC2)cc1`, the IC50 in data set [1] is 990 nM. Further, the inhibition in data set [4] is over 90%; in data set [5] it was 65%. The remaining at 2 h is over 90% in [7], over 90% in data set [8], over 90% in data set [9] and 22% in data set [11]. Besides, the remaining at 1 h in data set [10] was over 90%. Also, in [13], the remaining at 0.5 h was over 90%. In addition, the Stability entry in data set [14] is given as “Stable”. Besides, the Ratio in [2] came out at 10.1. In addition, the inhibition constant Ki in data set [3] was determined as 4.95 nM. Also, in [6], the permeability turned out to be 44%.
For `Cc1ncc(Cn2cc(CCO)nn2)c(N)n1`, in [1], the concentration for half-maximal inhibition (IC50) amounted to 30000 nM. In data set [3], the inhibition constant (Ki) came out at 150 nM.

In general, IC50 refers to the concentration at which inhibition is half-maximal. As usually defined, the Ki is the equilibrium dissociation constant of an inhibitor or competing ligand from its target. For orientation: inhibition means how much of the control response was suppressed.
